Source: patent US7012082B2, “Method of correcting HERG channel dysfunction” (priority 2002, dated 2006)

Legend:
HERG N470D = molecular target: T1, HERG N470D (Homo sapiens, UniProt Q12809, N470D); details: cultured at physiological temperature in low concentrations of drug; earlier publications; cited from earlier work
T1 construct: expressed in transfected cells

[1] = molecular target: T2, HERG N470D mutant channels (Homo sapiens, UniProt Q12809, N470D); details: cultured at physiological temperature in low concentrations of drug; earlier publications; cited from earlier work
[2] = molecular target: T2, HERG N470D mutant channels

COc1cc(N)c(Cl)cc1C(=O)NC1CCN(CCCOc2ccc(F)cc2)CC1OC (stereo not drawn) [cisapride]
mature HERG protein band on western blot, N470D cells (HERG N470D): appearance on western blot analysis of the mature HERG protein band | HERG current after drug washout, N470D cells (pharmacological rescue) [1]: large amplitude HERG current could be recorded

Sodium-phenylbutyrate [4PBA]
rescue of N470D current [2]: did not rescue N470D current
